Experimental data: US12458688B2, “Epitopes” (Scancell Limited, priority 2018, dated 2025)
Where no end group is shown, it is not given here. [ ]: non-standard residue; d: D form. hCit = NC(=O)NCCCC[C@H](N)C(=O)O

What was measured:
[1] = system: B16HHDII/iDP4 tumour cells; assay: Tumour therapy, B16HHDII/iDP4 tumour in HHDII/DP4 mice; assay type: in vivo, mouse; conditions: peptide with CpG/MPLA
Experimental: For tumour challenge experiments, mice were challenged with B16F1 cells s.c. on the right flank 3 days before primary immunisation (unless stated otherwise) and subsequently immunised as above. Tumour implants were carried out at dose of 2.5×10^4 cells/mouse for B16F1, 2.5×10^4 cells/mouse for B16F1 DR4, 4×10^5 cells/mouse for B16F1 HHDII/DP4, 5×10^5 cells/mouse for B16 HHDII/DR1, 1×10^5 cells/mouse for B16F1 HHDII/inducibleDP4, 5×10^4 cells/mouse for B16F1 inducible DR4. For studies involving depletion antibodies, 250 μg anti-mouse Ly6C antibody (clone Monts, BioXcell) was administered i.p. on days 8, 10, 12, 15, 17 and 19. 400 μg anti-mouse Ly6G antibody (clone 1A8, Biolegend) was administered i.p. on day 8 followed by 250 μg on days 11, 15 and 18. Anti-human CD4 antibody (clone OKT4, BioXcell) or anti-mouse CD8 antibody (clone 2.43, BioXcell) were administered at 500 μg dose on day 4 followed by 300 μg dose on days 8 and 11. Tumour growth was monitored twice weekly and mice were humanely euthanised once tumour reached ≥15 mm in diameter.
To provide further evidence for the role of CD4 T cell responses in tumour therapy HHDII/DP4 mice were implanted with B16HHDII/iDP4 tumour cells on day 1 and then immunised with peptides and CpG/MPLA on days 4, 8 and 11. Concurrent with peptide immunisation mice were also treated with CD4 or CD8 depleting antibody and tumour growth monitored. […] To show whether cyanate/isocyanic acid can cross cell membranes B16F1 melanoma cell line was cultured in vitro in the presence or absence of potassium cyanate which is in dynamic equilibrium with isocyanic acid. As a positive control lysates were also produced from in vitro cultured B16F1 cells and then treated with or without KCNO.

C57BI/6 mice = assay: Ex vivo IFNγ ELISpot after peptide immunisation, C57Bl/6 mice; assay type: in vivo, mouse
Experimental: (§1) C57BL/6 mice (Charles River, UK), HLA-DR4 mice (Model #4149, Taconic, USA), HLA-A2/DR1 (HHDII/DR1, Pasteur Institute), HLA-A2.1+/+HLA-DP4+/+hCD4+/+ (HLA-HHDII/DP4) transgenic mice (EM: 02221, European Mouse Mutant Archive) described in patent WO2013/017545 A1 (EMMA repository, France) were used, aged between 8 and 12 weeks. Peptides were dissolved in PBS to 1 mg/ml and then emulsified (a series of dilutions) with CpG ODN 1826 and MPLA 6 μg/mouse of each (Invivogen, UK). Peptides (25 μg/mouse) were injected subcutaneously at the base of the tail. Mice were immunised at days 1, 7 and 14 for peptide immunisation. Spleens were removed for analysis at day 21 unless stated otherwise.
(§2) ELISpot assays were performed using murine IFNγ, IL-17 and IL-10 capture and detection reagents according to the manufacturer's instructions (Mabtech, Sweden). In brief, anti-IFNγ, IL-17 and IL-10 specific antibodies were coated onto wells of 96-well Immobilin-P plate. […] After incubation, captured IFNγ, IL-10 and IL-17 were detected by biotinylated anti-IFNγ, IL-10 and IL-17 antibodies and developed with a streptavidin alkaline phosphatase and chromogenic substrate. […] Spots were analysed and counted using an automated plate reader (Cellular Technologies Ltd).
Significant IFNγ responses were detected to peptide vimentin 116-135 Hcit. […]

B16F1 DR4 tumours = assay: Tumour therapy, B16F1 DR4 tumour in DR4 mice; assay type: in vivo, mouse; conditions: peptide with CpG/MPLA days 4, 11, 18
From the text: To determine if the epitopes that stimulate T cell responses are presented on MHC-II within the tumour environment, our homocitrullinated peptides were checked for tumour therapy in B16 tumour models. Mice were implanted with tumour cells on day 1 and then immunised with peptides and CpG/MPLA on days 4, 11 and 18.
HHDII/DR1 (FIG. 19a) or DR4 (FIG. 19b) transgenic mice were challenged with B16F1 HHDII/DR1 or B16F1 DR4 tumours respectively prior to immunisation with vimentin 116-135Hcit peptide and tumour growth and survival were monitored.

[2] = system: B16F1 HHDII cells that cannot express DR1; assay: Tumour therapy, B16F1 HHDII lacking DR1 in HHDII/DR1 mice; assay type: in vivo, mouse; conditions: tumour without DR1
From the text: (§3) This is also true in the ALDOA immunised mice.

[3] = system: tumour cells that were not able to express HLA-DR4; assay: Tumour therapy, B16F1 lacking DR4 in HLA-DR4 mice; assay type: in vivo, mouse; conditions: tumour without HLA-DR4
From the text: as §3

[4] = system: IFNγ-inducible B16 DR4 tumour; assay: Tumour therapy, IFNγ-inducible B16 DR4 tumour in HLA-DR4 mice; assay type: in vivo, mouse; conditions: peptide with CpG/MPLA
From the text: To mimic the naturally occurring tumour, we engineered B16F1 cells to express HLA-DR4 under control of mouse IFNγ-inducible promoter. […] HLA-DR4 mice were then implanted with this IFNγ-inducible B16 DR4 tumour followed by immunisation with vimentin 116-135Hcit peptide (FIG. 19e).

[5] = system: splenocytes from immunised mice; assay: Ex vivo IL-17 ELISpot after peptide immunisation; conditions: mouse, in vivo
Experimental: as §1, §2

[6] = system: splenocytes from immunised mice; assay: Ex vivo IL-10 ELISpot after peptide immunisation; conditions: mouse, in vivo
Experimental: as §1, §2

Row | Substance | tumour growth / survival vs control [1] | IFNγ ELISpot response (C57BI/6 mice) | overall survival (B16F1 DR4 tumours) | survival vs control [2] | survival rate [3] | survival [4] | IL-17 ELISpot response [5] | IL-10 ELISpot response [6]
1 | LREYQELMNV-hcit-LALDIEI (LREYQELMNV[hCit]LALDIEI) [Cyk8 371-388 Hcit] | Significant prevention of tumour growth |  |  |  |  |  |  | 
2 | NYID-Hcit-VRFLEQQN-Hcit-ILLAEL (NYID[hCit]VRFLEQQN[hCit]ILLAEL) [Vimentin 116-135 Hcit] |  | no IFNγ responses were observed | 70% | no survival advantage | 20% | 40% | no production | no production
